# Marks after values point to notes of the source that are not given here.
# Assays:
# [1] = tested on: male Wister-rats; assay: Experiment 1-1 liver weight and lipids in liver; type: in vivo; settings: 4 weeks, rat
# Excerpt: (§1) Fifty 5-weeks aged male Wister-rats, having a weight of 110 to 120 grams, commercialized by Charles River Japan, Kanagawa, Japan, were fed on a non-fiber feed having a composition shown in Table 1 for one week for habituation. After the habituation, the rats were randomly divided into five groups and each group was fed on either of feeds shown in Table 1, i.e., a non-fiber feed, a feed in which cellulose was incorporated into the non-fiber feed to give a content of 5% (hereinafter, abbreviated as “fiber feed”), a feed in which powdery anhydrous crystalline CTS (purity of CTS: 99.5%), prepared by the method of Example A-3 described later, was incorporated into the non-fiber feed to give a content of 1, 2, or 5%, on a dry solid basis, and the feeding test was carried out for four weeks. A fiber-feed and three kinds of feeds comprising CTS were prepared to give the total content of cellulose or CTS and corn starch of 44.75% to the total weight of each feed. The rats were kept under the conditions of keeping the temperature at 25° C., lighting and shading for 12 hours each/day, and allowing the rats to eat the respective feed and water freely. After the completion of the feeding test, weight of individuals in each group was measured and an average weight and an average increase of weight of each group during the test period were calculated. Also, the total amount of feed fed to individual rat in each group during the 4-weeks test period and an average amount of CTS taken per day per kg-weight-rat were calculated and the results are in Table 2.
# (§2) After collecting the blood described above, each rat was killed by dislocating its cervical vertebrae and anatomized. Then, adipose tissues surrounding intestinal membrane, kidney, and testis, as well as liver and cecum, were collected. The wet-weight of those adipose tissues was measured and the results are in Table 4. In the case of liver, the wet-weight and the amount of total lipid, total cholesterol, triglyceride, and phospholipids were measured and the results are in Table 5. The amount of total lipid, total cholesterol, triglyceride, and phospholipids in the liver were measured by the steps of homogenizing four parts by weight of liver with four parts by weight of water using a homogenizer; extracting lipid by repeating three-times the following procedure of adding eight milliliters of a chloroform-methanol (2:1, by volume) solution, stirring the mixture, and centrifuging (3,000 rpm, 15 min) to collect chloroform phase; concentrating the resulting chloroform solution; and measuring those according to the same procedure used in the case of lipids in blood plasma.
# [2] = tested on: male Wister-rats; assay: Experiment 1-1 observation of diarrhea during feeding test; type: in vivo, rat
# Excerpt: as §1
# The symptom of diarrhea was not observed in rats fed on a feed with CTS content of 2%.
# [3] = tested on: male Wister-rats; assay: Experiment 1-1 wet-weight of adipose tissues around organs; type: in vivo; settings: 4 weeks, rat
# Excerpt: as §1, §2
# [4] = Experiment 1-1 feeding test on rat: weight and amount of feed taken; type: in vivo; settings: 4 weeks
# Excerpt: as §1
# [5] = tested on: male Wister-rats; assay: Experiment 1-1 cecal tissue, cecal content and bile acids in cecum; type: in vivo; settings: 4 weeks, rat
# Excerpt: Fifty 5-weeks aged male Wister-rats, having a weight of 110 to 120 grams, commercialized by Charles River Japan, Kanagawa, Japan, were fed on a non-fiber feed having a composition shown in Table 1 for one week for habituation. After the habituation, the rats were randomly divided into five groups and each group was fed on either of feeds shown in Table 1, i.e., a non-fiber feed, a feed in which cellulose was incorporated into the non-fiber feed to give a content of 5% (hereinafter, abbreviated as “fiber feed”), a feed in which powdery anhydrous crystalline CTS (purity of CTS: 99.5%), prepared by the method of Example A-3 described later, was incorporated into the non-fiber feed to give a content of 1, 2, or 5%, on a dry solid basis, and the feeding test was carried out for four weeks. A fiber-feed and three kinds of feeds comprising CTS were prepared to give the total content of cellulose or CTS and corn starch of 44.75% to the total weight of each feed. […] After the completion of the feeding test, weight of individuals in each group was measured and an average weight and an average increase of weight of each group during the test period were calculated. Also, the total amount of feed fed to individual rat in each group during the 4-weeks test period and an average amount of CTS taken per day per kg-weight-rat were calculated and the results are in Table 2.
# Just after extirpating cecum as described above, its content was collected and weighted. The concentration of bile acids was measured by the steps of adding two milliliters of 80% (v/v) methanol aqueous solution to 0.2 gram of the cecal content, extracting bile acids at 70° C. for 30 min, centrifuging (3,500 rpm, 10 min) the mixture, drying the resulting supernatant in a dessicator with P2O5 for overnight, and measuring bile acids using a kit, “BILE ACID-TEST WAKO”, commercialized by Wako Pure Chemical Industries, Ltd., Osaka, Japan. The amount of bile acids was calculated by multiplying the concentration of bile acids and weight of the cecal content. […]
# [6] = tested on: male Wister-rats; assay: Experiment 1-1 amount of lipids in blood plasma; type: in vivo; settings: 4 weeks, rat
# Excerpt: as §1
# After the feeding test, each rat was fasted for one day and incised under anesthesia with ether. Then, blood was collected from the main vein of each rat using a syringe treated with 1% EDTA. Each collected blood was centrifuged at 3,500 rpm for 10 minutes to separate blood plasma and the contents of total cholesterol, triglyceride, and phospholipids in the resulting blood plasma were measured by using kits, “CHOLESTEROL C-TEST-WAKO”, “TRIGLYCERIDE-TEST-WAKO”, and “PHOSPHOLIPID C-TEST-WAKO”, respectively, commercialized by Wako Pure Chemical Industries, Ltd., Osaka, Japan. In order to check the hepatic function disorder, GOT activity in the blood plasma was measured using a kit, “GOT-TEST-WAKO”, commercialized by Wako Pure Chemical Industries, Ltd., Osaka, Japan. The content of LDL-cholesterol was calculated by subtracting the content of HDL-cholesterol from the total content of cholesterol. A significant difference test was done with respect to the group fed on fiber feed. In the case of cholesterol, a significant difference test was done with respect to the group fed on non-fiber feed because it was believed that cellulose has no activity of reducing the amount of cholesterol by oral intake as described in “SHOKUMOTSU-SENI KISO-TO-OYO (Dietary fiber, its basis and application)” published by ASAKURA-SHOTEN in 1997.
# [7] = tested on: male Wister-rats; assay: Experiment 1-1 GOT activity in blood plasma (hepatic function disorder check); type: in vivo, rat; settings: for GOT: blood plasma, 4 weeks, rat
# Excerpt: as §1
# After the feeding test, each rat was fasted for one day and incised under anesthesia with ether. Then, blood was collected from the main vein of each rat using a syringe treated with 1% EDTA. Each collected blood was centrifuged at 3,500 rpm for 10 minutes to separate blood plasma and the contents of total cholesterol, triglyceride, and phospholipids in the resulting blood plasma were measured by using kits, “CHOLESTEROL C-TEST-WAKO”, “TRIGLYCERIDE-TEST-WAKO”, and “PHOSPHOLIPID C-TEST-WAKO”, respectively, commercialized by Wako Pure Chemical Industries, Ltd., Osaka, Japan. In order to check the hepatic function disorder, GOT activity in the blood plasma was measured using a kit, “GOT-TEST-WAKO”, commercialized by Wako Pure Chemical Industries, Ltd., Osaka, Japan. The content of LDL-cholesterol was calculated by subtracting the content of HDL-cholesterol from the total content of cholesterol. A significant difference test was done with respect to the group fed on fiber feed. […]
# [8] = 5% (w/w) CTS (Fiber: 5% cellulose) in feed
structure (smiles),measurement,setting,value
"OCC1OC2OCC3O[C@H](O[C@H]4C(O)C(CO)OC(OCC5O[C@H](O[C@@H](C1O)C2O)C(O)C(O)[C@@H]5O)C4O)C(O)C(O)[C@@H]3O (stereo partly drawn) [CTS, cyclo {→6)-α-D-glucopyranosyl-(1→3)-α-D-glucopyranosyl-(1→6)-α-D-glucopyranosyl-(1→3)-α-D-glucopyranosyl-(1→}]",Phospholipids in liver,[1]; 1% (w/w) CTS in feed,140 mg/individual
same,Total cholesterols in liver,[1]; 1% (w/w) CTS in feed,35.9 mg/individual
same,Total lipids in liver,[1]; 1% (w/w) CTS in feed,510 mg/individual
same,Triglycerides in liver,[1]; 1% (w/w) CTS in feed,186 mg/individual
same,Phospholipids in liver,[1]; 2% (w/w) CTS in feed,149 mg/individual
same,Total cholesterols in liver,[1]; 2% (w/w) CTS in feed,37.2 mg/individual
same,Total lipids in liver,[1]; 2% (w/w) CTS in feed,598 mg/individual
same,Triglycerides in liver,[1]; 2% (w/w) CTS in feed,254 mg/individual
same,Phospholipids in liver,[1]; [8],142 mg/individual
same,Total cholesterols in liver,[1]; [8],35.4 mg/individual
same,Total lipids in liver,[1]; [8],575 mg/individual
same,Triglycerides in liver,[1]; [8],239 mg/individual
same,symptom of diarrhea,[2]; rats fed on a feed with CTS content of 2%,not observed
same,duration of symptom of diarrhea after initial intake of CTS,[2]; rats fed on a feed with CTS content of 5%,2 to 3 days
same,symptom of diarrhea (individuals affected),"[2]; rats fed on a feed with CTS content of 5%, then cured",two individuals in ten individuals
same,Adipose surrounding intestinal membrane,[3]; 1% (w/w) CTS in feed,3.7 g/individual
same,Adipose surrounding kidney,[3]; 1% (w/w) CTS in feed,3.7* g/individual
same,Adipose surrounding testis,[3]; 1% (w/w) CTS in feed,4.0* g/individual
same,Adipose surrounding intestinal membrane,[3]; 2% (w/w) CTS in feed,3.1* g/individual
same,Adipose surrounding kidney,[3]; 2% (w/w) CTS in feed,2.9* g/individual
same,Adipose surrounding testis,[3]; 2% (w/w) CTS in feed,3.9* g/individual
same,Adipose surrounding intestinal membrane,[3]; [8],1.9* g/individual
same,Adipose surrounding kidney,[3]; [8],2.1* g/individual
same,Adipose surrounding testis,[3]; [8],3.1* g/individual
same,Increase of weight,[4]; 1% (w/w) CTS in feed,164 g/individual/28 days
same,Weight,[4]; 1% (w/w) CTS in feed,337 g/individual
same,Increase of weight,[4]; 2% (w/w) CTS in feed,169 g/individual/28 days
same,Weight,[4]; 2% (w/w) CTS in feed,342 g/individual
same,Increase of weight,[4]; [8],149* g/individual/28 days
same,Weight,[4]; [8],322* g/individual
same,Bile acids in cecum,[5]; 1% (w/w) CTS in feed,1.15* μmol
same,Bile acids in cecum,[5]; 2% (w/w) CTS in feed,1.36* μmol
same,Bile acids in cecum,[5]; [8],1.53* μmol
same,Phospholipids,[6]; 1% (w/w) CTS in feed,116 mg/dL
same,Total cholesterols,[6]; 1% (w/w) CTS in feed,67.1 mg/dL
same,Triglycerides,[6]; 1% (w/w) CTS in feed,44.2 mg/dL
same,Phospholipids,[6]; 2% (w/w) CTS in feed,115 mg/dL
same,Total cholesterols,[6]; 2% (w/w) CTS in feed,66.1 mg/dL
same,Triglycerides,[6]; 2% (w/w) CTS in feed,28.7* mg/dl
same,Phospholipids,[6]; [8],107 mg/dL
same,Total cholesterols,[6]; [8],59.4* mg/dl
same,Triglycerides,[6]; [8],21.7* mg/dl
same,GOT,[7]; 1% (w/w) CTS in feed,10.3 IU
same,GOT,[7]; 2% (w/w) CTS in feed,10.2 IU
same,GOT,[7]; [8],10.7 IU
same,GOT values (markers of functional disorder of liver) during the test period,"[7]; rats, regardless of the intake of CTS",not significantly changed

# Reference: patent US8940715B2, “Lipid-regulating agent and use thereof” (Hayashibara Co., Ltd., priority 2003, dated 2015)
